In US20200172473A1, “DUAL MODULATORS OF FARNESOID X RECEPTOR AND SOLUBLE EPOXIDE HYDROLASE” (JOHANN WOLFGANG GOETHE-UNIVERSITÄT FRANKFURT AM MAIN, priority 2017, published 2020):
“And” between values parts separate entries of the source, which are not always exact repeats. Equal values may be shown once.

Assays:
[1] = target: T1, recombinant human sEH (Homo sapiens, UniProt P34913); test: fluorescence-based sEH activity assay with PHOME substrate; assay type: biochemical; settings: for IC50: recombinant human sEH, PHOME, read-out: sEH inhibition IC50; for inhibition at 50 µM: read-out: sEH % inhibition at indicated conc.
T1 sequence (P34913 1-555): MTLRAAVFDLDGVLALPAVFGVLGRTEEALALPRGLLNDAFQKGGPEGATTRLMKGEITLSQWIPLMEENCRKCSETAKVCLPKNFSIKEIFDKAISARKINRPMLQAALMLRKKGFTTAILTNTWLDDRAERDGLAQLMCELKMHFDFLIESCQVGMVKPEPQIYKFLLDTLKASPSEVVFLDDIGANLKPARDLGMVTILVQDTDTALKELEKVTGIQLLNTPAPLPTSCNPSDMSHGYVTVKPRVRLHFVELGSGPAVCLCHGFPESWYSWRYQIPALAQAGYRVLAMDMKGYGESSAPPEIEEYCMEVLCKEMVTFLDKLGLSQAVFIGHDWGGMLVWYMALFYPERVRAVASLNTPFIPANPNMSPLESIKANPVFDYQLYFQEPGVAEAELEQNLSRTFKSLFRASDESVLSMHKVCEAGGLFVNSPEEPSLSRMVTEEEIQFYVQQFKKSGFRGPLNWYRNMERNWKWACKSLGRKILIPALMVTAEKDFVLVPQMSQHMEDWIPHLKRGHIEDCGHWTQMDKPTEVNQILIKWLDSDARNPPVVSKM
Description: (§1) This assay is based on a reporter construct containing a firefly luciferase under the control of the FXR response element from bile salt export protein (BSEP). FXR and its hetero dimer partner retinoid X receptor (RXR) as expression constructs under the control of a CMV promoter as well as a constitutively expressed renilla luciferase (SV40 promoter) for normalization and toxicity control were co-transfected. […] The sEH inhibitory potency of the test compounds was quantified in a fluorescence-based assay using recombinant enzyme and the fluorogenic sEH substrate PHOME^37 that is hydrolyzed to a fluorescent 6-methoxynaphtaldehyde by sEH.
The sEH inhibitory potency of the compounds were determined in a fluorescence-based 96-well sEH activity assay using recombinant human enzyme^50,51. Non-fluorescent PHOME (3-phenylcyano-(6-methoxy-2-naphthalenyl)methyl ester 2-oxiraneacetic acid; Cayman Chemicals) which can be hydrolyzed by the sEH to fluorescent 6-methoxynaphthaldehyde served as substrate. Recombinant human sEH (in Bis-Tris buffer, pH 7, with 0.1 mg/mL BSA containing a final concentration of 0.01% Triton-X 100) was pre-incubated with test compounds (in DMSO, final DMSO concentration: 1%) for 30 min at room temperature. […] A blank control (no protein and no compound) as well as a positive control (no compound) were executed. All experiments were conducted in triplicate and repeated in at least three independent experiments. For IC50 calculation, dose-response curves of increasing compound concentrations were recorded.

[2] = target: T2, human FXR (Homo sapiens, UniProt Q96RI1); test: full-length FXR reporter gene (transactivation) assay in HeLa cells; assay type: cell-based; settings: for Emax: HeLa, read-out: FXR activation max. rel. activation (converted); for EC50: full-length FXR reporter gene assay, HeLa cells, read-out: FXR activation EC50; for FXR % activation at indicated conc.: 50 μM, relative to GW4064 (1c) at 3 μM = 100%
T2 construct: characterized in a full-length (fl) FXR reporter gene assay in HeLa cells; expressed in transfected cells; host or cells: HeLa
T2 sequence (Q96RI1 1-486): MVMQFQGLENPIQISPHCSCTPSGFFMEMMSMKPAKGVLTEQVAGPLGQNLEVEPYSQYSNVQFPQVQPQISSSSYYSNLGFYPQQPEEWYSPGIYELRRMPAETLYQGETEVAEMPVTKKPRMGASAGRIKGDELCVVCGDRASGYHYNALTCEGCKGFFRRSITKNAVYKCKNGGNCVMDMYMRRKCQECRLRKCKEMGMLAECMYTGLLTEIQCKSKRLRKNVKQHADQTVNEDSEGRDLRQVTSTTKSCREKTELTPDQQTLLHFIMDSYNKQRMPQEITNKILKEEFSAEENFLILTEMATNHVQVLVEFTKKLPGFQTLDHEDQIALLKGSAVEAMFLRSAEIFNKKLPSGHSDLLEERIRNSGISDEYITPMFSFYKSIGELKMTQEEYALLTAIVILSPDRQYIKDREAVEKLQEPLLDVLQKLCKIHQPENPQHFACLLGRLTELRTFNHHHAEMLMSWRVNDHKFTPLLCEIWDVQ
T2 sequence (P19793 1-462 partner): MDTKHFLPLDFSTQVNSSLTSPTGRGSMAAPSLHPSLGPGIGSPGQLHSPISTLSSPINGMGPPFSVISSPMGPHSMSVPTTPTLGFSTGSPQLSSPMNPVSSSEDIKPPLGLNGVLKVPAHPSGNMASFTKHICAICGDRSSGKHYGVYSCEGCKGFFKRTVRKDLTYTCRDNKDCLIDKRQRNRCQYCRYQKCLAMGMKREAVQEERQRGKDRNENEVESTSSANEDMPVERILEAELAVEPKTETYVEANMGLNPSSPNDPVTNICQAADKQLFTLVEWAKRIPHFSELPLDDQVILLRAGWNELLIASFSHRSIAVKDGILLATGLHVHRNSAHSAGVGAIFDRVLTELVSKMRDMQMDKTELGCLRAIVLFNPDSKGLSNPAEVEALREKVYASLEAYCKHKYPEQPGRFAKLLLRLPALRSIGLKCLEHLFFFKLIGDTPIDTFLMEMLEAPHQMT
Description: as §1
Plasmids: pcDNA3-hFXR contains the sequence of human FXR and was already published elsewhere.^47 pGL3 basic (Promega Corporation, Fitchburg, Wis., USA) was used as a reporter plasmid, with a shortened construct of the promotor of the bile salt export protein (BSEP) cloned into the SacI/NheI cleavage site in front of the luciferase gene.^48 pRL-V40 (Promega) was transfected as a control for normalization of transfection efficiency and cell growth. pSG5-hRXR was already published elsewhere as well.^49
Assay procedure: HeLa cells were grown in DMEM high glucose supplemented with 10% FCS, sodium pyruvate (1 mM), penicillin (100 U/mL) and streptomycin (100 μg/mL) at 37° C. and 5% CO2. […] Transient transfection of HeLa cells with BSEP-pGL3, pRL-SV40 and the expression plasmids pcDNA3-hFXR and pSG5-hRXR was carried out using calcium phosphate transfection method. […] Each concentration was tested in triplicate wells and each experiment was repeated independently at least three times. […] Luminescence was measured with a Tecan Infinite M200 luminometer (Tecan Deutschland GmbH, Crailsheim, Germany). Normalization of transfection efficiency and cell growth was done by division of firefly luciferase data by renilla luciferase data multiplied by 1000 resulting in relative light units (RLU). Fold activation was obtained by dividing the mean RLU of the tested compound at a respective concentration by the mean RLU of untreated control. […] EC50 and standard error of the mean values were calculated with the mean relative activation values of at least three independent experiments by SigmaPlot 10.0 (Systat Software GmbH, Erkrath, Germany) using a four parameter logistic regression.

## CC(C)(C)c1ccc(C(=O)NCc2ccc(N)cc2Cl)cc1 [69a, N-(4-Amino-2-chlorobenzyl)-4-(tert-butyl)benzamide]
[1]
  IC50: 40 ± 6 nM
[2]
  Emax: 29%
  EC50: 46 nM and 45 nM

## Cc1ccc(C(=O)NCc2ccc(C(=O)O)cc2)cc1C [compound 10]
[1]
  inhibition at 50 µM: 52 ± 1%
[2]
  Emax: 12%

## O=C(O)c1ccc(CNC(=O)c2cccc(-c3ccccc3)c2)cc1 [compound 12]
[2]
  Emax: 14%

## O=C(O)c1ccc(CNC(=O)c2ccc(-c3ccccc3)cc2)cc1 [compound 13]
[2]
  Emax: 24%

## O=C(O)c1ccc(CNC(=O)c2ccc(Cl)c(Cl)c2)cc1 [compound 14]
[2]
  FXR % activation at indicated conc.: inactive (50 μM)

## COc1ccc(C(=O)NCc2ccc(C(=O)O)cc2)cc1OC [compound 15]
[1]
  inhibition at 50 µM: 26 ± 2%
[2]
  Emax: 18%

## O=C(O)c1ccc(CNC(=O)c2ccc3ccccc3c2)cc1 [compound 17]
[1]
  inhibition at 50 µM: 45 ± 1%
[2]
  Emax: 18%

## CC(C)(C)c1ccc(C(=O)NCc2ccc(C(=O)O)cc2)cc1 [compound 18]
[2]
  Emax: 13%

## COc1cc(C(=O)NCc2ccc(C(=O)O)cc2)ccc1C(C)(C)C [compound 20]
[2]
  Emax: 23%

## CC(C)(C)c1ccc(NC(=O)Nc2ccc(C(=O)O)cc2)cc1 [compound 21]
[2]
  Emax: 14%

## CC(C)(C)c1ccc(C(=O)NCc2cccc(C(=O)O)c2)cc1 [compound 22]
[1]
  inhibition at 50 µM: 26 ± 2%
[2]
  Emax: 14%

## CC(C)(C)c1ccc(C(=O)NCc2ccc(CC(=O)O)cc2)cc1 [compound 23]
[2]
  Emax: 19%

## CC(C)(C)c1ccc(C(=O)NCc2ccc(CCC(=O)O)cc2)cc1 [compound 24]
[2]
  Emax: 16%

## CC(C)(C)c1ccc(C(=O)NCc2ccc(OCC(=O)O)cc2)cc1 [compound 25]
[2]
  Emax: 21%

## Cc1cc(CNC(=O)c2ccc(C(C)(C)C)cc2)ccc1C(=O)O [compound 26]
[1]
  inhibition at 50 µM: 53 ± 1%
[2]
  Emax: 14%

## CC(C)(C)c1ccc(C(=O)NCc2ccc(C(=O)O)c(F)c2)cc1 [compound 27]
[2]
  Emax: 28%

## CC(C)(C)c1ccc(C(=O)NCc2ccc(C(=O)O)c(Cl)c2)cc1 [compound 28]
[1]
  inhibition at 50 µM: 50 ± 1%
[2]
  Emax: 21%

## Cc1cc(C(=O)O)ccc1CNC(=O)c1ccc(C(C)(C)C)cc1 [compound 29]
[2]
  FXR % activation at indicated conc.: inactive (50 μM)

## CC(C)(C)c1ccc(C(=O)NCc2ccc(C(=O)O)cc2F)cc1 [compound 30]
[2]
  Emax: 26%

## CC(C)(C)c1ccc(C(=O)NCc2ccc(C(=O)O)cc2Cl)cc1 [compound 31]
[2]
  Emax: 25%

## CC(NC(=O)c1ccc(C(C)(C)C)cc1)c1ccc(C(=O)O)cc1 (stereo not shown) [compound 32]
[1]
  inhibition at 50 µM: 37 ± 1%
[2]
  Emax: 24%

## CC(C)(C)c1ccc(C(=O)NCc2ccc(CO)cc2)cc1 [compound 33]
[2]
  FXR % activation at indicated conc.: inactive (50 μM)

## CC(C)(C)c1ccc(C(=O)NCc2ccc(C=O)cc2)cc1 [compound 34]
[2]
  Emax: 22%

## CC(=O)c1ccc(CNC(=O)c2ccc(C(C)(C)C)cc2)cc1 [compound 35]
[2]
  Emax: 29%

## CC(C)(C)c1ccc(C(=O)NCc2ccc(C#N)cc2)cc1 [compound 36]
[2]
  FXR % activation at indicated conc.: inactive (50 μM)

## CC(C)(C)c1ccc(C(=O)NCc2ccc(C(N)=O)cc2)cc1 [compound 37]
[2]
  Emax: 27%

## CNC(=O)c1ccc(CNC(=O)c2ccc(C(C)(C)C)cc2)cc1 [compound 38]
[2]
  Emax: 29%

## CN(C)C(=O)c1ccc(CNC(=O)c2ccc(C(C)(C)C)cc2)cc1 [compound 39]
[2]
  Emax: 17 ± 100%

## CC(=O)Nc1ccc(CNC(=O)c2ccc(C(C)(C)C)cc2)cc1 [compound 40]
[2]
  Emax: 31%

## CC(C)(C)c1ccc(C(=O)NCc2ccc(NC(=O)C(F)(F)F)cc2)cc1 [compound 41]
[2]
  Emax: 20%

## CC(C)(C)c1ccc(C(=O)NCc2ccc(N)cc2)cc1 [compound 42]
[2]
  FXR % activation at indicated conc.: inactive (50 μM)

## CC(C)(C)c1ccc(C(=O)NCc2ccc(-c3nnn[nH]3)cc2)cc1 [compound 43]
[2]
  Emax: 23%

## CC(C)(C)c1ccc(C(=O)NCc2ccc(S(N)(=O)=O)cc2)cc1 [compound 44]
[2]
  Emax: 16%

## CC(=O)NS(=O)(=O)c1ccc(CNC(=O)c2ccc(C(C)(C)C)cc2)cc1 [compound 45]
[2]
  FXR % activation at indicated conc.: inactive (50 μM)

## CC(C)(C)c1ccc(C(=O)NCc2ccc(NS(C)(=O)=O)cc2)cc1 [compound 46]
[2]
  Emax: 22%

## COc1ccc(CNC(=O)c2ccc(C(C)(C)C)cc2)cc1 [compound 47]
[2]
  Emax: 19%

## CCOc1ccc(CNC(=O)c2ccc(C(C)(C)C)cc2)cc1 [compound 48]
[2]
  Emax: 31%

## CC(C)Oc1ccc(CNC(=O)c2ccc(C(C)(C)C)cc2)cc1 [compound 49]
[2]
  Emax: 26%

## CC(C)(C)c1ccc(C(=O)NCc2ccc(OC(F)(F)F)cc2)cc1 [compound 50]
[2]
  Emax: 26%

## CSc1ccc(CNC(=O)c2ccc(C(C)(C)C)cc2)cc1 [compound 51]
[1]
  IC50: ~100 nM
[2]
  Emax: 33%
  EC50: ~100 nM

## C[S+]([O-])c1ccc(CNC(=O)c2ccc(C(C)(C)C)cc2)cc1 (stereo not shown) [compound 52]
[2]
  Emax: 24%

## CC(C)(C)c1ccc(C(=O)NCc2ccc(S(C)(=O)=O)cc2)cc1 [compound 53]
[2]
  Emax: 34%

## CC(C)(C)c1ccc(C(=O)NCc2ccc(SC(F)(F)F)cc2)cc1 [compound 54]
[2]
  Emax: 19%

## CC(C)(C)c1ccc(C(=O)NCc2ccc(S(N)(=O)=O)cc2F)cc1 [compound 55]
[2]
  Emax: 34%
